Measurements from patent US20130225629A1, “TARGETING PI3K/MTOR SIGNALLING AND NEUTROPHIL RECRUITMENT FOR TREATMENT OF ENTERITIS” (THE UNIVERSITY OF NORTH CAROLINA AT CHAPEL HILL, priority 2012, published 2013).

Experiments:
[1] = tested on: II-17a mRNA; test: Real-time RT-PCR of colonic II-17a mRNA; format: in vivo, mice; settings: AS252424 vs vehicle treated infected mice
Method: (§1) Total RNA from colonic tissue was extracted using TRIzol® kit (Invitrogen, Carlsbad, Calif., United States of America). Complementary DNA was prepared using M-MLV (Invitrogen). Messenger RNA levels of proinflammatory genes were determined using SYBR® Green PCR Master Mix (Applied Biosystems, Carlsbad, Calif., United States of America) on an ABI 7900HT Fast Real-Time PCR System and normalized to Gapdh. The polymerase chain reactions were performed according to the manufacturer's recommendation. The following gene primers were used: Gapdh_forward: 5′-[…]-3′ (SEQ ID NO: 2), Gapdh_reverse: 5′-[…]-3′ (SEQ ID NO: 3), II-1_forward: 5′-[…]-3′ (SEQ ID NO: 4), II-1_reverse: 5′-[…]-3′ (SEQ ID NO: 5), Cxcl2_forward: 5′-[…]-3′ (SEQ ID NO: 6), Cxcl2_reverse: 5′-[…]-3′ (SEQ ID NO: 7), II-17a_forward: 5′-[…]-3′ (SEQ ID NO: 8), II-17a_reverse: 5′-[…]-3′ (SEQ ID NO: 9), II12p40_forward: […] (SEQ ID NO: 10), II12p40_reverse: […] (SEQ ID NO: 11), Tnf forward: […] (SEQ ID NO: 12), Tnf reverse: […] (SEQ ID NO: 13).
(§2) Total RNA from intestinal tissues was extracted using TRIzol® kit (Invitrogen, Carlsbad, Calif., United States of America) following the manufacture's guide. cDNA was reverse-transcribed using M-MLV (Invitrogen). Proinflammatory 111β, Cxcl2, II17a and Tnfα mRNA expression levels were measured using SYBR® Green PCR Master mix (Applied Biosystems, Carlsbad, Calif., United States of America) on an ABI 7900HT Fast Real-Time PCR System and normalized to Gapdh. The PCR primers used were reported previously. (Sun et al., 2012). The PCR reactions were performed for 40 cycles according to the manufacturer's recommendation, and RNA fold changes were calculated using the ΔΔct method.

[2] = tested on: p70S6 kinase (T389); test: Western blot of colonic p70S6K phosphorylation in C. jejuni infected mice; format: in vivo; settings: AS252424 10 mg/kg i.p. daily, 6 days
Method: Whole tissues were lysed in Laemmli buffer and 20 μg of protein was separated by SDS-PAGE, transferred to nitrocellulose membranes and protein detected using enhanced chemiluminescence reaction (ECL) as described previously. (Lippert et al., 2009). Primary antibodies used were phospho-p70S6K (T389) and p70S6K (Cell Signaling, Danvers, Mass., United States of America), EGFP (Sigma, St. Louis, Mo., United States of America), LC3 I/II (MBL) and Actin.
A segment of the distal colon was lysed in 300 μl Laemmli buffer, homogenized and heated at 95° C. for 5 min. 20 μg of total protein were separated by SDS-PAGE and transferred to nitrocellulose membranes. Targeted protein was detected using enhanced chemiluminescence reaction (ECL) as described previously (Muhlbauer et al., 2008). Primary antibodies used were phosphor-AKT (S473), phosphor-p70S6K (T389), total AKT (all from Cell Signaling, Danvers, Mass., United States of America) and EGFP (Sigma, St. Louis, Mo., United States of America). The density of Western blot bands was quantified using ImageJ and data were normalized to total AKT control.

[3] = tested on: Cxcl2 mRNA; test: Real-time RT-PCR of colonic Cxcl2 mRNA; format: in vivo, mice; settings: AS252424 vs vehicle treated infected mice
Method: as §1, §2

[4] = tested on: II1β mRNA; test: Real-time RT-PCR of colonic II1β mRNA; format: in vivo, mice; settings: AS252424 vs vehicle treated infected mice
Method: as §1, §2

For O=C1NC(=O)/C(=C/c2ccc(-c3ccc(F)cc3O)o2)S1 [AS252424], the “block of C. jejuni-induced II17a mRNA accumulation” value [1] was 72%, the “attenuation of p70S6K phosphorylation (T389) in colonic extracts” value [2] was 34% and the “block of C. jejuni-induced Cxcl2 mRNA accumulation” value [3] was 73%. The “block of C. jejuni-induced I11β mRNA accumulation” value [4] was 77%.
